Data set [1] is described as follows: Solubility of cholesteryl sulfate salts. In kind it is physicochemical.
The next data set has as its system porcine whole blood. Put plainly: Sonoclot analysis (clotting time ACT and clot rate) in recalcified porcine whole blood. Conditions: for ACT / clot rate: 360 μl porcine whole blood, recalcified with 20 μl 0.2 M calcium chloride, 1.1 mg carrier, SCS as 4% by wt vesicle solution. Format: biochemical. An excerpt:
The haemostatic effect of cholesteryl sulfate as such was investigated using a Sonoclot®Coagulation & Platelet Function Analyzer by Scienco® Inc with regard to the clotting time (ACT) and clot rate. In this case, the ACT value indicates the time until the onset of the first thickening of the blood, which matches the time required by the system for generating a first blood clot. The clot rate indicates the speed with which the clot solidifies, and is there fore a measure for fibrin formation.
For the investigations presently illustrated, different quantities of cholesteryl sulfate in the form of its sodium salt was dissolved in methanol, and aliquots were transferred into the reaction vessels. By evaporating the methanol, the cholesteryl sulfate was precipitated as a layer on the bottom of the reaction vessel. Then 360 μl of porcine citrate blood were put into the reaction vessel, and 20 μl 0.2 M calcium chloride solution were subsequently added for recalcification. Both the time until coagulation (ACT) as well as the clot formation rate were measured with the Sonoclot Analyzer.
In order to show the enhanced effects in blood clotting of the combination of cholesteryl sulphate as a haemostatic agent and a haemostatic carrier material such as collagen the Sonoclot-Test has been carried out according to example 1.
The test condition and materials were in accordance with example 1.
As a carrier material freeze-dried, milled collagen from the company Dr. Suwelack Skin & Health Care AG (SHC) as well as collagen from bovine tendon from the company Sigma Aldrich have been examined in the Sonoclot-Analyzer and compared to cholesteryl sulphate as well as to a combination of the collagen and cholesteryl sulphate (SCS).
For the examination of the collagen carrier material 1.1 mg carrier material were transferred into the reaction vessels containing 360 μl porcine whole blood. 12.5 μl isosmotic saline solution (NaCl) were subsequently admixed and 20 μl 0.2 M calcium chloride solution were subsequently added for recalcification. Both the time until coagulation (ACT) as well as the clot formation rate were measured with the Sonoclot Analyzer. High clot rate indicates fast fibrin formation and thus fast clot formation.
For the examination of the collagen carrier material in combination with cholesteryl sulphate instead of isosmotic saline solution 12.5 μl of a cholesteryl sulphate vesicle solution containing 4% by wt cholesteryl sulphate is admixed with the carrier material.
For the examination of the cholesteryl sulphate a 4% by wt vesicle solution alone was tested accordingly.
The vesicle solution was prepared as described in example 2, Nr. 2 a).

A short description of data set [2]: Stability of cholesteryl sulfate salts. Format: physicochemical.

On to `CC(C)CCC[C@@H](C)[C@H]1CC[C@H]2[C@@H]3CC=C4C[C@@H](OS(=O)(=O)[O-])CC[C@]4(C)[C@H]3CC[C@]12C.[Na+]` [12.5 μl SCS, sodium cholesteryl sulfate], for which, in data set [1], the water-solubility result is reported as “only small water-solubility”. In the data set with porcine whole blood (Experiment 1), the ACT worked out at 90 s and the clot rate amounted to 17. In addition, in the data set with porcine whole blood (Experiment 2), the ACT stood at 81 s and the clot rate is 29. For the same compound, in the data set on porcine whole blood (non-activated system, no pre-incubation), the effect on coagulation result is on record as “coagulation-promoting effect”.
Take `CC(C)CCC[C@@H](C)[C@H]1CC[C@H]2[C@@H]3CC=C4C[C@@H](OS(=O)(=O)[O-])CC[C@]4(C)[C@H]3CC[C@]12C.[K+]` [potassium cholesteryl sulfate]: the “stability compared with sodium cholesteryl sulfate” value in data set [2] is given as “greater stability”. Moreover, the “solubility compared with sodium cholesteryl sulfate” value in data set [1] (e.g. in methanol) was “less soluble”. In data set [1], the water-solubility result was “only small water-solubility”.

(Values after patent US20120052125A1, “Cholesteryl Sulfate-Containing Composition As A Haemostatic” (DR. SUWELACK SKIN & HEALTH CARE AG, priority 2008, published 2012).)
